Data as given in ChEMBL document CHEMBL3507680, “University of Dundee, Gates Library screen for HepG2 cell viability”.

Assay: Human HepG2 cell viability assay in 384 well format
Type: toxicity, cell-based
Parameters: dose 125 nL, time 70.5 hour; cytotoxicity at 70.5 h: concentration not given beside the values
Details: HepG2 cells, read-out: Inhibition

`CC(=O)N1CCCn2c(nc(CNS(=O)(=O)C3CC3)cc2=O)C1` gave a cytotoxicity at 70.5 h of -2.61%.

Compound `CCC(CC)NC(=O)c1ccc2nnc(C3CCN(C(C)=O)C3)n2c1` (centres undefined) has a cytotoxicity at 70.5 h of 5.94%.

Work on `O=C(NC1CCCC1)c1nc2c(o1)CN(C(=O)CCO)C2` yielded a cytotoxicity at 70.5 h of -4.91%.

With `CCS(=O)(=O)N1CCOC2(CCCN(c3ncc(F)cn3)C2)C1` (centres undefined) the cytotoxicity at 70.5 h was -4.67%.

Work on `O=c1cc(CNS(=O)(=O)C2CC2)nc2n1CCCNC2` yielded a cytotoxicity at 70.5 h of -2.64%.

`CC(C)NC(=O)c1ccc2nnc(C3CCN(C(=O)NC(C)C)C3)n2c1` (centres undefined) showed a cytotoxicity at 70.5 h of -0.652%.

Work on `Cc1nc(-c2cc(C(=O)N3CCN(C)CC3)c3ccccn23)cn1C` yielded a cytotoxicity at 70.5 h of -0.647%.

For `CC(=O)N1CCC(c2nnc3ccc(C(=O)NC(C)C)cn23)C1` (centres undefined), the cytotoxicity at 70.5 h was -1.85%.

Compound `O=C(NC1CCCC1)c1nc2c(o1)CN(CCO)C2` has a cytotoxicity at 70.5 h of -0.956%.

For `COC1COC2(CCN(C(=O)c3cscn3)CC2)C1` (centres undefined), the cytotoxicity at 70.5 h was -6.82%.

Work on `CN(C)C(=O)CNC(=O)c1ccc2c(-c3nccs3)noc2c1` yielded a cytotoxicity at 70.5 h of -3.55%.

`O=C1COC2(CCN(c3ncccn3)CC2)CN1c1ccsc1` gave a cytotoxicity at 70.5 h of -4.75%.

`CCC(=O)N1CCC2(CC1)CC(CC(N)=O)c1ccc(F)cc12` (centres undefined) showed a cytotoxicity at 70.5 h of -7.49%.

`CC(C)N(C)Cc1noc2c1CN(C(=O)c1ccsc1)CC2` gave a cytotoxicity at 70.5 h of -12.5%.

Compound `COc1cc(N2CCc3ncnc(-c4cnn(C)c4)c3CC2)ncn1` has a cytotoxicity at 70.5 h of -12%.

In the case of `CN(C)CCNC(=O)c1ccc2c(-c3nccs3)noc2c1`, the cytotoxicity at 70.5 h is reported as -8.08%.

In the case of `COC[C@]12COC[C@H]1CN(C(=O)C1CCSCC1)C2`, the cytotoxicity at 70.5 h is reported as -6.73%.

Compound `O=C(NCCN1CCCC1)c1ccc2c(-c3nccs3)noc2c1` has a cytotoxicity at 70.5 h of -6.42%.

In the case of `CNC(=O)c1cnc2n1CCN(Cc1cccnc1OC)C2`, the cytotoxicity at 70.5 h is reported as -4.55%.

Compound `CC1c2ncc(Cn3cncn3)n2CCN1C(=O)Cc1cccs1` (centres undefined) has a cytotoxicity at 70.5 h of -6.55%.

`CCOCc1cnc2n1CCN(C(=O)Cc1ccco1)C2C` (centres undefined) gave a cytotoxicity at 70.5 h of -6.58%.

In the case of `C[C@H]1C[C@@H]2CCN(CC3CCOCC3)C[C@H]2O1`, the cytotoxicity at 70.5 h is reported as -7.97%.

`O=C(NCC1Cn2nnc(-c3ccncc3)c2CO1)c1ccsc1` (centres undefined) gave a cytotoxicity at 70.5 h of 1.38%.

With `CC(C)c1nc(-c2cc(C(=O)N3CCN(C)CC3)c3ccccn23)cs1` the cytotoxicity at 70.5 h was 9.79%.

Work on `O=C(C1CN(CC2CC2)CC12CCOCC2)N1CCOCC1` (centres undefined) yielded a cytotoxicity at 70.5 h of -1.96%.

`O=C1[C@H]2CN(CC3CCOCC3)C[C@H]2CN1c1ccsc1` gave a cytotoxicity at 70.5 h of -1.42%.

Compound `CC(C)n1ccc(-c2cc(C(=O)N3CCN(C)CC3)c3ccccn23)n1` has a cytotoxicity at 70.5 h of -3.84%.

In the case of `O=S(=O)(C1CC1)N1CCC2(CCN(Cc3nccs3)CC2)CC1`, the cytotoxicity at 70.5 h is reported as -2.17%.

For `CS(=O)(=O)N1CCC2(CCN(Cc3nccs3)CC2)CC1`, the cytotoxicity at 70.5 h was -0.411%.

In the case of `CN(C)S(=O)(=O)N1CC[C@]2(C[C@H](OCc3ccncc3)CO2)C1`, the cytotoxicity at 70.5 h is reported as -0.865%.

`OCCN1CCC2(CCc3cc(-c4ccoc4)ccc32)CC1` gave a cytotoxicity at 70.5 h of -2.95%.

For `c1ccc(CCNCC2Cn3nncc3CO2)cc1` (centres undefined), the cytotoxicity at 70.5 h was -0.333%.

With `Cc1ccc(CN2CC[C@H]3[C@H]2CCN3S(=O)(=O)C2CC2)cc1` the cytotoxicity at 70.5 h was -6.33%.

Compound `COCCN1CCN(S(=O)(=O)C2CC2)Cc2ccc(C)nc21` has a cytotoxicity at 70.5 h of -5.69%.

Compound `CN(C)Cc1nc2c(o1)CN(C(=O)NCc1cccc(F)c1)C2` has a cytotoxicity at 70.5 h of -5.42%.

Work on `O=C(c1cocn1)N1CCC2(CC1)CC(Oc1ccccn1)CO2` (centres undefined) yielded a cytotoxicity at 70.5 h of -8.48%.

In the case of `COCCN1CCC2(COCCN(C(=O)Cc3cccs3)C2)C1` (centres undefined), the cytotoxicity at 70.5 h is reported as -5.29%.

`c1cncc(-c2ccc3c(c2)CCC32CCN(Cc3nccs3)CC2)c1` showed a cytotoxicity at 70.5 h of -2.27%.

For `CN(C)CCN1CCC2(CCCN(C(=O)C3CCC3)C2)CC1`, the cytotoxicity at 70.5 h was -1.03%.

Compound `COCC(=O)N1CCCC2(CCN(CCN3CCCC3)CC2)C1` has a cytotoxicity at 70.5 h of -1.48%.

With `CN(C)CC(=O)N1CCC2(CCc3cc(-c4cccnc4)ccc32)CC1` the cytotoxicity at 70.5 h was -0.278%.

`c1csc(CN2CCC3(CC2)CCN(CC2CC2)CC3)n1` gave a cytotoxicity at 70.5 h of 14.9%.

Compound `CN1CCC(NC(=O)[C@H]2CC[C@@H]3[C@@H](CCN3c3ncccn3)O2)CC1` has a cytotoxicity at 70.5 h of -6.76%.

Work on `C[C@@H]1CN(C2CCOCC2)C[C@]12CCN(c1cccnc1)C2=O` yielded a cytotoxicity at 70.5 h of -5.4%.
